Patent US20100267561A1, “HERBICIDAL PYRIDAZINONE DERIVATIVES” (priority 2007, published 2010)

Legend:
Assay type in all cases: in vivo
canola (Brassica rapa) = test: Test C pre-/postemergence plant response
Method in brief: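 Pre- and postemergence treatment, visual 0–100 rating vs controls at 15–25 days.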

[1] = test system: black mustard (Brassica nigra); test: Test E pre-/postemergence plant response; details: scale 0 to 100
Method in brief: (§1)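 Formulated in a non-phytotoxic solvent mixture containing surfactant, compound was applied to soil at planting or sprayed on emerged plants at the 1- to 4-leaf stage. Visual comparison with controls followed 14 to 21 days in the greenhouse; 0 = no effect, 100 = complete control.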

[2] = test system: tropical (T.) spiderwort (Commelina benghalensis); test: Test E pre-/postemergence plant response; details: scale 0 to 100
Method in brief: as §1

[3] = Preemergence, 8 g ai/ha, scale 0 to 100 (0 no effect, 100 complete control)
[4] = Preemergence, 16 g ai/ha, scale 0 to 100 (0 no effect, 100 complete control)
[5] = Preemergence, 31 g ai/ha, scale 0 to 100 (0 no effect, 100 complete control)
[6] = Preemergence, 62 g ai/ha, scale 0 to 100, 0 no effect, 100 complete control
[7] = Postemergence, 8 g ai/ha, scale 0 to 100, 0 no effect, 100 complete control
[8] = Postemergence, 16 g ai/ha, scale 0 to 100, 0 no effect, 100 complete control
[9] = Postemergence, 31 g ai/ha, scale 0 to 100, 0 no effect, 100 complete control
[10] = Postemergence, 62 g ai/ha, scale 0 to 100, 0 no effect, 100 complete control

Cc1cn(-c2ccc(Cl)cc2)nc1-c1c(O)cnn(C)c1=O [Compound 30, 4-[1-(4-chlorophenyl)-4-methyl-1H-pyrazol-3-yl]-5-hydroxy-2-methyl-3(2H)-pyridazinone]
0: Plant response rating, Canola (canola (Brassica rapa); [3]) | Plant response rating, Canola (canola (Brassica rapa); [4]) | Plant response rating, Canola (canola (Brassica rapa); [5]) | Plant response rating, Canola (canola (Brassica rapa); [6])

Cc1cc(-c2ccc(Cl)cc2)nn1-c1c(OC(=O)OCC(C)C)cnn(C)c1=O [Compound 57]
0: Plant response rating, Canola (canola (Brassica rapa); [7]) | Plant response rating, Canola (canola (Brassica rapa); [8]) | Plant response rating, Canola (canola (Brassica rapa); [9]) | Plant response rating, Canola (canola (Brassica rapa); [10]) | Plant response rating, Canola (canola (Brassica rapa); [3]) | Plant response rating, Canola (canola (Brassica rapa); [6])

CCc1cc(-c2ccc(F)cc2)nn1-c1c(O)cnn(C)c1=O [Compound 25]
0: Plant response rating, Canola (canola (Brassica rapa); [7]) | Plant response rating, Canola (canola (Brassica rapa); [8]) | Plant response rating, Canola (canola (Brassica rapa); [9]) | Plant response rating, Canola (canola (Brassica rapa); [10]) | Plant response rating, Canola (canola (Brassica rapa); [3]) | Plant response rating, Canola (canola (Brassica rapa); [4]) | Plant response rating, Canola (canola (Brassica rapa); [5]) | Plant response rating, Canola (canola (Brassica rapa); [6])

COC(=O)Oc1cnn(C)c(=O)c1-n1nc(-c2ccc(Cl)cc2)cc1C [Compound 33]
0: Plant response rating, Canola (canola (Brassica rapa); [3]) | Plant response rating, Canola (canola (Brassica rapa); [4]) | Plant response rating, Canola (canola (Brassica rapa); [5]) | Plant response rating, Canola (canola (Brassica rapa); [6]) | Plant response rating, Mustard, Black ([1]; 8 g ai/ha, Preemergence) | Plant response rating, Mustard, Black ([1]; 16 g ai/ha, Preemergence) | Plant response rating, Mustard, Black ([1]; 31 g ai/ha, Preemergence) | Plant response rating, Mustard, Black ([1]; 62 g ai/ha, Preemergence) | Plant response rating, Mustard, Black ([1]; Postemergence, 8 g ai/ha) | Plant response rating, Mustard, Black ([1]; Postemergence, 16 g ai/ha) | Plant response rating, Mustard, Black ([1]; Postemergence, 31 g ai/ha) | Plant response rating, Mustard, Black ([1]; Postemergence, 62 g ai/ha) | Plant response rating, Spiderwort, T. ([2]; 16 g ai/ha, Preemergence) | Plant response rating, Spiderwort, T. ([2]; 31 g ai/ha, Preemergence) | Plant response rating, Spiderwort, T. ([2]; 62 g ai/ha, Preemergence) | Plant response rating, Spiderwort, T. ([2]; Postemergence, 8 g ai/ha) | Plant response rating, Spiderwort, T. ([2]; Postemergence, 16 g ai/ha) | Plant response rating, Spiderwort, T. ([2]; Postemergence, 62 g ai/ha)

CCc1cc(-c2ccc(Cl)c(Cl)c2)nn1-c1c(O)cnn(C)c1=O [Compound 20]
0: Plant response rating, Canola (canola (Brassica rapa); [7]) | Plant response rating, Canola (canola (Brassica rapa); [8]) | Plant response rating, Canola (canola (Brassica rapa); [9]) | Plant response rating, Canola (canola (Brassica rapa); [10])

CCc1cc(-c2ccc(Cl)cc2)nn1-c1c(OC(=O)OC(C)C)cnn(C)c1=O [Compound 41]
0: Plant response rating, Canola (canola (Brassica rapa); [3]) | Plant response rating, Canola (canola (Brassica rapa); [4]) | Plant response rating, Canola (canola (Brassica rapa); [5]) | Plant response rating, Canola (canola (Brassica rapa); [6])

CCc1c(C)c(-c2ccc(Cl)cc2)nn1-c1c(O)cnn(C)c1=O [Compound 26, 4-[3-(4-chlorophenyl)-5-ethyl-4-methyl-1H-pyrazol-1-yl]-5-hydroxy-2-methyl-3(2H)-pyridazinone]
0: Plant response rating, Canola (canola (Brassica rapa); [7]) | Plant response rating, Canola (canola (Brassica rapa); [8]) | Plant response rating, Canola (canola (Brassica rapa); [9]) | Plant response rating, Canola (canola (Brassica rapa); [10]) | Plant response rating, Canola (canola (Brassica rapa); [5]) | Plant response rating, Canola (canola (Brassica rapa); [6])
